Measured values reported in publication PMC8405091, “Microwave-assisted Phospha-Michael addition reactions in the 13α-oestrone series and in vitro antiproliferative properties” (Journal of Enzyme Inhibition and Medicinal Chemistry, 2021).

Columns and labels:
[1] = tested on: UPCI-SCC-131 cells; assay: MTT antiproliferative assay, UPCI-SCC-131; type: cell-based, human; settings: Homo sapiens; for inhibition at 10 µM: UPCI-SCC-131, 10 μM; for inhibition at 10 µM / inhibition at 30 µM: 72 h, read-out: Growth inhibition, % ± SEM; for inhibition at 30 µM: UPCI-SCC-131, 30 μM; for IC50: UPCI-SCC-131, 72 h, read-out: calculated IC50 value
Experimental: (§1) The antiproliferative properties of the newly synthesized compounds (9–20) and their starting materials (4 and 5) were determined on a panel of human adherent cancer cell lines. MCF-7, MDA-MB-231 and T47D were isolated from breast cancers differing in biochemical background, while A2780 cells were isolated from ovarian cancer. HeLa and SiHa are cervical cancer cell lines positive for HPV-18 and HPV-16, respectively, while C33-A cervical cancer cells are negative for HPV. Moreover, two oropharyngeal cancer cell lines were also utilized: the HPV-negative UPCI-SCC-131 and HPV-16 positive UPCI-SCC-154. The cancer selectivity of compounds was tested on the non-cancerous mouse embryo fibroblast cell line NIH/3T3. All cell lines were purchased from European Collection of Cell Cultures (ECCAC, Salisbury, UK) exception for SiHa and C33-A (American Tissue Culture Collection, Manassas, VA, USA) and HN-SCC-131 and UPCI-SCC-154 (German Collection of Microorganisms and Cell Cultures GmbH, Braunschweig, Germany). Cells were cultivated in minimal essential medium supplemented with 10% fetal bovine serum, 1% non-essential amino acids and an antibiotic–antimycotic mixture. The medium of oropharyngeal cancer cells additionally contained 2.0 mM L-glutamine. All media and supplements were obtained from Lonza Group Ltd., Basel, Switzerland. Near-confluent cancer cells were seeded onto a 96-well microplate at a density of 5,000 cells/well, except for C33-A which were seeded at 10,000/well. After overnight standing, new medium containing the tested compounds at 10 and 30 µM final concentration was added. After incubation for 72 h at 37 °C in humidified air containing 5% CO2, the living cells were assayed by the addition of 20 μL of 5 mg/ml 3-(4,5-dimethylthiazol-2-yl)-2,5-diphenyltetrazolium bromide (MTT) solution. MTT was converted by intact mitochondrial reductase and precipitated as purple crystals during a 4-h contact period. The medium was next removed and the precipitated formazan crystals were dissolved in 100 μL of DMSO during a 60-min period of shaking at 37 ^оC.
(§2) All in vitro experiments were carried out twice with five parallels. Stock solutions of the tested substances (10 mM) were prepared in DMSO. […] Cisplatin (Ebewe Pharma GmbH, Unterach, Austria) was used as positive control.

[2] = tested on: C33-A cells; assay: MTT antiproliferative assay, C33-A; type: cell-based, human; settings: Homo sapiens, C-33-A, C33-A, 72 h; for inhibition at 10 µM / inhibition at 30 µM: read-out: Growth inhibition, % ± SEM; for IC50: read-out: calculated IC50 value
Experimental: as §1, §2

[3] = tested on: UPCI-SCC-154 cells; assay: MTT antiproliferative assay, UPCI-SCC-154; type: cell-based, human; settings: Homo sapiens; for inhibition at 10 µM: UPCI-SCC-154, 10 μM; for inhibition at 10 µM / inhibition at 30 µM: 72 h, read-out: Growth inhibition, % ± SEM; for inhibition at 30 µM: UPCI-SCC-154, 30 μM; for IC50: UPCI-SCC-154, 72 h, read-out: calculated IC50 value
Experimental: as §1, §2

[4] = tested on: non-cancerous mouse embryo fibroblast (NIH/3T3) cells; assay: MTT assay on non-cancerous fibroblasts (tumour selectivity); type: cell-based; settings: Mus musculus, NIH3T3; for inhibition at 10 µM: NIH/3T3, 10 μM; for inhibition at 10 µM / inhibition at 30 µM: 72 h, read-out: Growth inhibition, % ± SEM; for inhibition at 30 µM: NIH/3T3, 30 μM; for IC50: NIH/3T3, 72 h, read-out: calculated IC50 value
Experimental: as §1, §2

[5] = tested on: HeLa cells; assay: MTT antiproliferative assay, HeLa; type: cell-based, human; settings: Homo sapiens, 72 h; for inhibition at 10 µM / inhibition at 30 µM: read-out: Growth inhibition, % ± SEM; for IC50: read-out: calculated IC50 value
Experimental: as §1, §2

[6] = tested on: SiHa cells; assay: MTT antiproliferative assay, SiHa; type: cell-based, human; settings: Homo sapiens, 72 h; for inhibition at 10 µM / inhibition at 30 µM: read-out: Growth inhibition, % ± SEM; for IC50: read-out: calculated IC50 value
Experimental: as §1, §2

[7] = tested on: T47D cells; assay: MTT antiproliferative assay, T47D; type: cell-based, human; settings: Homo sapiens, 72 h; for inhibition at 10 µM / inhibition at 30 µM: read-out: Growth inhibition, % ± SEM; for IC50: read-out: calculated IC50 value
Experimental: as §1, §2

[8] = tested on: MCF-7 cells; assay: MTT antiproliferative assay, MCF-7; type: cell-based, human; settings: Homo sapiens, MCF7; for inhibition at 10 µM: MCF-7, 10 μM; for inhibition at 10 µM / inhibition at 30 µM: 72 h, read-out: Growth inhibition, % ± SEM; for inhibition at 30 µM: MCF-7, 30 μM; for IC50: MCF-7, 72 h, read-out: calculated IC50 value
Experimental: as §1, §2

[9] = tested on: A2780 cells; assay: MTT antiproliferative assay, A2780; type: cell-based, human; settings: Homo sapiens; for IC50: A2780, 72 h, read-out: calculated IC50 value; for inhibition at 10 µM: A2780, 10 μM; for inhibition at 10 µM / inhibition at 30 µM: 72 h, read-out: Growth inhibition, % ± SEM; for inhibition at 30 µM: A2780, 30 μM
Experimental: as §1, §2

[10] = tested on: MDA-MB-231 cells; assay: MTT antiproliferative assay, MDA-MB-231; type: cell-based, human; settings: Homo sapiens; for IC50: MDA-MB-231, 72 h, read-out: calculated IC50 value; for inhibition at 10 µM: MDA-MB-231, 10 μM; for inhibition at 10 µM / inhibition at 30 µM: 72 h, read-out: Growth inhibition, % ± SEM; for inhibition at 30 µM: MDA-MB-231, 30 μM
Experimental: as §1, §2

| Compound | inhibition at 10 µM [1] | inhibition at 30 µM [1] | IC50 [1] | inhibition at 10 µM [2] | inhibition at 30 µM [2] | IC50 [2] | inhibition at 10 µM [3] | inhibition at 30 µM [3] | IC50 [3] | inhibition at 10 µM [4] | inhibition at 30 µM [4] | IC50 [4] | inhibition at 10 µM [5] | inhibition at 30 µM [5] | IC50 [5] | inhibition at 10 µM [6] | inhibition at 30 µM [6] | IC50 [6] | inhibition at 10 µM [7] | inhibition at 30 µM [7] | further results |
| --- | --- | --- | --- | --- | --- | --- | --- | --- | --- | --- | --- | --- | --- | --- | --- | --- | --- | --- | --- | --- | --- |
| C=C1C[C@H]2[C@@H]3CCc4cc(OCc5ccccc5)ccc4[C@H]3CC[C@@]2(C)C1=O [Compound 5] | 99.54 ± 0.33% | 99.94 ± 0.44% | 2.38 µM | 93.9 ± 2.56% | 100 ± 0.23% | 3.75 µM | 96.4 ± 0.89% | 100.3 ± 0.82% | 4.5 µM | 100.8 ± 0.16% | 100.3 ± 0.25% | 2.74 µM | 75.1 ± 3.73% | 99.65 ± 0.25% | 6.99 µM | 98.98 ± 0.26% | 99.97 ± 0.42% | 2.3 µM | 100.2 ± 0.28% | 101.3 ± 0.47% | IC50 [7]: 3.47 µM; inhibition at 10 µM [8]: 99.7 ± 0.43%; inhibition at 30 µM [8]: 100.6 ± 0.31%; IC50 [8]: 3.35 µM; IC50 [9]: 6.7 µM; inhibition at 10 µM [9]: 94.8 ± 2.13%; inhibition at 30 µM [9]: 100.9 ± 0.18%; IC50 [10]: 4.07 µM; inhibition at 10 µM [10]: 97.2 ± 1.46%; inhibition at 30 µM [10]: 98.57 ± 0.89% |
| C=C1C[C@H]2[C@@H]3CCc4cc(OC)ccc4[C@H]3CC[C@@]2(C)C1=O [Compound 4, 3-methoxy-16-methylene derivative] | 99.8 ± 0.36% | 99.88 ± 0.39% | 3.17 µM | 99.57 ± 0.61% | 99.55 ± 0.39% | 3.6 µM | 97.3 ± 1.1% | 97.81 ± 0.65% | 5.15 µM | 101.1 ± 0.67% | 100.9 ± 0.71% | 2.79 µM | 85.1 ± 2.44% | 99.43 ± 0.28% | 4.45 µM | 97.44 ± 0.54% | 99.28 ± 0.42% | 3.31 µM | 99.68 ± 0.74% | 99.92 ± 0.71% | IC50 [7]: 3.46 µM; inhibition at 10 µM [8]: 99.52 ± 0.51%; inhibition at 30 µM [8]: 99.83 ± 0.44%; IC50 [8]: 3.7 µM; IC50 [9]: 6.24 µM; inhibition at 10 µM [9]: 96.9 ± 1.52%; inhibition at 30 µM [9]: 100.5 ± 0.22%; IC50 [10]: 3.97 µM; inhibition at 10 µM [10]: 99.97 ± 0.71%; inhibition at 30 µM [10]: 94.6 ± 2.26% |
